The values below come from patent publication US8901118B2, “Compounds and methods for kinase modulation, and indications therefor” (Plexxikon Inc., priority 2010, dated 2014).

Holding throughout (assay type): in vitro ADME
The target in one test is CYP3A4(BFC) (Homo sapiens, UniProt P08684). The experiment in a line: CYP3A4(BFC) inhibition. Conditions: CYP3A4, substrate BFC; read-out: Cyp IC50 3A4(BFC). The method in brief: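 This fluorescence assay tracks how test compounds reduce CYP3A4 turnover of BFC, with enzyme and substrate from BD Biosciences. A 10-point 1:1 dilution series in cofactor mix (1.3% NADPH Regeneration Solution A, 1.04% Solution B, 5% acetonitrile, 0.05% DMSO) was dispensed at 10 μL into 384 well plates, preincubated 10 minutes at 37° C, then incubated 30 min and read on a Tecan Safire 2.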

For the next test, the target named is CYP2C19 (Homo sapiens, UniProt P33261). The experiment in a line: CYP2C19 inhibition (fluorescent substrate CEC). Conditions: read-out: Cyp IC50 2C19. In a few lines:
(§1)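 Test compound titrated 1:1 across ten concentrations; metabolite fluorescence measured after 37 °C incubation of 15 min (CYP1A2), 30 min (CYP2C19, CYP2D6) or 45 min (CYP2C9). IC50 from signal versus concentration.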

The target in the next test is CYP2C9 (Homo sapiens, UniProt P11712). The experiment in a line: CYP2C9 inhibition (fluorescent substrate MFC). Conditions: read-out: Cyp IC50 2C9. The method in brief: as §1
Another test concerns the target T1, CYP1A2 (Homo sapiens, UniProt P05177).
T1 sequence (P05177 1-516): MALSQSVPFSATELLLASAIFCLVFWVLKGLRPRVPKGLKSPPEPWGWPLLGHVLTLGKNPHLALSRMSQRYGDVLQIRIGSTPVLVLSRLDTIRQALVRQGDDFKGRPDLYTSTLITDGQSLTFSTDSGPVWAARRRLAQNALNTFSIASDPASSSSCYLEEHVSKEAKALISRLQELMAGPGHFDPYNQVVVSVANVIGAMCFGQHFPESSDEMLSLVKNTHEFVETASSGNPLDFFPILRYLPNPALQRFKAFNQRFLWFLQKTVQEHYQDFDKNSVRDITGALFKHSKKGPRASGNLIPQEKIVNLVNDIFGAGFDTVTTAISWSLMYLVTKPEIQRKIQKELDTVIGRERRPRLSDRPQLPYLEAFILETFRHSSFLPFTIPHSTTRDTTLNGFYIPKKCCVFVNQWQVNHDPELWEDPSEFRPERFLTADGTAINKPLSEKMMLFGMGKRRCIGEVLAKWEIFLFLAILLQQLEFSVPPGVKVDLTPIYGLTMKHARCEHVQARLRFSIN
The experiment in a line: CYP1A2 inhibition (fluorescent substrate CEC). Conditions: read-out: Cyp IC50 1A2. In a few lines: as §1

Each structure is given as a SMILES string. A value given as a limit tells only on which side of the number the result lay.

Sequence of CYP2C9 (P11712 whole entry): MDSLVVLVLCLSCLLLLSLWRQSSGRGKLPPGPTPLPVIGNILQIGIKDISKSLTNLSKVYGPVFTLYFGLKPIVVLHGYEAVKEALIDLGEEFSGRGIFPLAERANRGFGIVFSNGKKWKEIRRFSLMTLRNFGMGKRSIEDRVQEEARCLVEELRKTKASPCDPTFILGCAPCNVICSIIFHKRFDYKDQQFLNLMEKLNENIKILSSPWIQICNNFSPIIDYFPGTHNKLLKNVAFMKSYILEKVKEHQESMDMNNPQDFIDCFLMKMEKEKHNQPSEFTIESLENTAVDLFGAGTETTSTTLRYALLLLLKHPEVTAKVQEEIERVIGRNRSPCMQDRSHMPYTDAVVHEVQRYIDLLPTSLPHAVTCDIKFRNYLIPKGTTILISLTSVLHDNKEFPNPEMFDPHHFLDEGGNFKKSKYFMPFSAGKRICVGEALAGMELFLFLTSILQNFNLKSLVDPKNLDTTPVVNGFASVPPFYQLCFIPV
Sequence of CYP3A4(BFC) (P08684 whole entry): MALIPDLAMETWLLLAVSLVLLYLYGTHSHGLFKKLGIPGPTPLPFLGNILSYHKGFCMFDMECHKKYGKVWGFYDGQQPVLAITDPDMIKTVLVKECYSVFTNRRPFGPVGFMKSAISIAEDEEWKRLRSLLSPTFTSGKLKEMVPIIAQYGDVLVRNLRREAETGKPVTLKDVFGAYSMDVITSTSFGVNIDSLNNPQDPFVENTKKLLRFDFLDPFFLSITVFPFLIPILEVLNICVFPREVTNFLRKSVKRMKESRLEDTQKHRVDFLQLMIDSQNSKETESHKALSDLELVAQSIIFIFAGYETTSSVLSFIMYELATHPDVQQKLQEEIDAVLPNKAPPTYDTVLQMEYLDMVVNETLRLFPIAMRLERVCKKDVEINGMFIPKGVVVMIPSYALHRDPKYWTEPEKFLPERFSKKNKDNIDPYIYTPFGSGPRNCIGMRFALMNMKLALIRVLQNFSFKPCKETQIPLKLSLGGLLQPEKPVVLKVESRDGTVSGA
Sequence of CYP2C19 (P33261 whole entry): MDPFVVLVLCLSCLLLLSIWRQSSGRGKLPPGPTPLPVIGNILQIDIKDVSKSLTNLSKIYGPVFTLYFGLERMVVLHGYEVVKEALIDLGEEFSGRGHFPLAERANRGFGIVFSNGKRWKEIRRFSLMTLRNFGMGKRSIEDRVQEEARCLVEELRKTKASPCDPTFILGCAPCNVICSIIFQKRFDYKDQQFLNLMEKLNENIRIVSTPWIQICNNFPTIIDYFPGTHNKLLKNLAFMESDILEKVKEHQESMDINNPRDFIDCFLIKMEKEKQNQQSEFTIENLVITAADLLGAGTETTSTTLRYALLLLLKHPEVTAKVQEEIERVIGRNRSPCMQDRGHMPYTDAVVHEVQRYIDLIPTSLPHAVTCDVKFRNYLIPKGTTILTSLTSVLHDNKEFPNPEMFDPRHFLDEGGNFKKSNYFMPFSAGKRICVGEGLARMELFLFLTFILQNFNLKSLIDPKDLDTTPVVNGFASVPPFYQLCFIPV

What is called IC50 is the concentration at which inhibition is half-maximal. Take `Fc1nc(NC2CCC(F)(F)CC2)ccc1Cc1c[nH]c2ncnc(NCC(F)(F)F)c12` [Compound P-4128, 5-[[6-[(4,4-difluorocyclohexyl)amino]-2-fluoro-3-pyridyl]methyl]-N-(2,2,2-trifluoroethyl)-7H-pyrrolo[2,3-d]pyrimidin-4-amine]: the IC50 on CYP3A4(BFC), at CYP2C19, at CYP2C9 and at CYP1A2 was over 10 µM each time.

`CCOc1ncnc2[nH]cc(Cc3ccc(Nc4ccc(C)nc4)nc3F)c12` [Compound P-4017, [5-(4-Ethoxy-7H-pyrrolo[2,3-d]pyrimidin-5-ylmethyl)-6-fluoro-pyridin-2-yl]-(6-methyl-pyridin-3-yl)-amine]: the IC50 at CYP3A4(BFC), on CYP2C19, on CYP2C9 and on CYP1A2 was over 10 µM each time.

Consider `Fc1nc(Nc2ccc(C3CC3)nc2)ccc1Cc1c[nH]c2ncnc(NCC(F)(F)F)c12` [Compound P-4130, 5-[[6-[(6-cyclopropyl-3-pyridyl)amino]-2-fluoro-3-pyridyl]methyl]-N-(2,2,2-trifluoroethyl)-7H-pyrrolo[2,3-d]pyrimidin-4-amine], for which the IC50 was under 5 µM on CYP3A4(BFC), under 5 µM on CYP2C19, over 10 µM at CYP2C9 and over 10 µM at CYP1A2.

As for `CCOc1ccc(Nc2ccc(C(=O)c3c[nH]c4ncnc(OC)c34)c(F)n2)cn1` [Compound P-4024, [6-(6-Ethoxy-pyridin-3-ylamino)-2-fluoro-pyridin-3-yl]-(4-methoxy-7H-pyrrolo[2,3-d]pyrimidin-5-yl)-methanone], the IC50 on CYP3A4(BFC) was under 5 µM; at CYP2C19, over 10 µM; at CYP2C9 it was over 10 µM; at CYP1A2, over 10 µM.

On to `CCc1ccc(Nc2ccc(C(=O)c3c[nH]c4ncnc(C5CC5)c34)c(F)n2)cn1` [Compound P-4029, (4-Cyclopropyl-7H-pyrrolo[2,3-d]pyrimidin-5-yl)-[6-(6-ethyl-pyridin-3-ylamino)-2-fluoro-pyridin-3-yl]-methanone], for which the IC50 at CYP3A4(BFC), at CYP2C19, at CYP2C9 and at CYP1A2 was over 10 µM throughout.

For the molecule `COc1ccc(Nc2ccc(Cc3c[nH]c4ncnc(OC)c34)c(F)n2)cn1` [Compound P-4001, [6-Fluoro-5-(4-methoxy-7H-pyrrolo[2,3-d]pyrimidin-5-ylmethyl)-pyridin-2-yl]-(6-methoxy-pyridin-3-yl)-amine], the IC50 on CYP3A4(BFC) was over 10 µM; at CYP2C19, under 5 µM; on CYP2C9 it was over 10 µM; on CYP1A2 it was over 10 µM.

Regarding `COc1ccc(Nc2ccc(Cc3c[nH]c4ncnc(C)c34)c(F)n2)cn1` [Compound P-4002, [6-Fluoro-5-(4-methyl-7H-pyrrolo[2,3-d]pyrimidin-5-ylmethyl)-pyridin-2-yl]-(6-methoxy-pyridin-3-yl)-amine], the IC50 at CYP3A4(BFC), at CYP2C19, at CYP2C9 and at CYP1A2 was over 10 µM throughout.

Turning to `Cc1cnc2[nH]cc(Cc3ccc(Nc4ccc(C)nc4)nc3F)c2c1` [Compound P-3041, [6-Fluoro-5-(5-methyl-1H-pyrrolo[2,3-b]pyridin-3-ylmethyl)-pyridin-2-yl]-(6-methyl-pyridin-3-yl)-amine], the IC50 at CYP3A4(BFC) is 5 to 10 µM; on CYP2C19, over 10 µM; on CYP2C9, over 10 µM; at CYP1A2, over 10 µM.
